Article PMC7914639, “Antioxidant, Pancreatic Lipase Inhibitory, and Tyrosinase Inhibitory Activities of Extracts of the Invasive Plant Spartina anglica (Cord-Grass)” (Antioxidants, 2021)

Tests used:
[1] = biological target: T1, porcine pancreatic lipase (Sus scrofa, UniProt P00591); experiment: Pancreatic lipase inhibition assay (p-NPB hydrolysis); format: biochemical; conditions: for inhibition at 10 µg/mL: 10 μg/mL; for inhibition at 25 µg/mL: 25 μg/mL; for inhibition at 50 µg/mL: 50 μg/mL
T1 construct: purchased Sigma-Aldrich (St. Louis, MO, USA) Type II
T1 sequence (P00591 1-450): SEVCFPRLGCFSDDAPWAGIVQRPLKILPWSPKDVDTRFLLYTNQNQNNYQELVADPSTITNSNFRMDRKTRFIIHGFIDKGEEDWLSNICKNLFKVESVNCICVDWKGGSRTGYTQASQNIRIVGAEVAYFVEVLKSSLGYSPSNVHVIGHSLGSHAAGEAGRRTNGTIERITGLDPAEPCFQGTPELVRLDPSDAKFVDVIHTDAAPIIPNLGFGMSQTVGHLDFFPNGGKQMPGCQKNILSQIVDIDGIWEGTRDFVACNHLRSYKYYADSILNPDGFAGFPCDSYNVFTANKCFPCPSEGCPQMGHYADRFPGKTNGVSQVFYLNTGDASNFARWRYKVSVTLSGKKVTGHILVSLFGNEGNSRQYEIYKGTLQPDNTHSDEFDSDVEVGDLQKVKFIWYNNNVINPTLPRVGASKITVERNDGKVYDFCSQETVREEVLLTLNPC
Method: Pancreatic lipase activity was measured using the method previously reported by Kim et al.. An enzyme buffer was prepared by the addition of 6 μL of porcine pancreatic lipase solution (Sigma-Aldrich, St. Louis, MO, USA) in a buffer (10 mM morpholinepropanesulfonic acid and 1 mM EDTA, pH 6.8) to Tris buffer (169 μL, 100 mM Tris-HCl, and 5 mM CaCl2, pH 7.0). […] The enzymatic reaction mixtures were incubated at 37 °C for 35 min. Pancreatic lipase activity was determined by measuring the hydrolysis of p-NPB to p-nitrophenol, with absorption being recorded at 405 nm using a microplate reader (Model Infinite M200 PRO; Tecan, Austria). Inhibition of lipase activity was expressed in terms of the percentage reduction in absorbance when porcine pancreatic lipase was incubated with the test compounds, and calculated using the following Equation (4) Inhibition (%) = 100 − [(B − b)/(A − a) × 100](4) where A is the lipase activity without inhibitor, a is the negative control without inhibitor, B is the lipase activity with inhibitor, and b is the negative control with inhibitor. The results are expressed as an average (n = 4).

[2] = DPPH free radical-scavenging activity; conditions: for DPPH Radical Scavenging (%): Table S3; for IC50: read-out: Radical-Scavenging Activity Against DPPH IC50
Method: DPPH free radical-scavenging properties were evaluated using a previously reported method. Test sample (an extract, a fraction or a compound) in 100 μL of dimethyl sulfoxide (DMSO) (blank: 100 μL of DMSO solution) was added to 100 μL of an ethanolic solution of DPPH (60 μM) in the wells of a 96-well microplate. […] After the sample and the reagents had been mixed gently and incubated for 30 min at room temperature, the absorbance (A) at 540 nm was evaluated using a microplate reader (Model Infinite M200 PRO; Tecan, Austria). The free radical-scavenging activity was calculated as a percentage using the equation DPPH free radical-scavenging activity (%) = [1 − (Asample/Ablank)] × 100.(1)

tyrosinase [3] = biological target: tyrosinase; design: method as in doi:10.1007/s10600-014-1030-9; conditions: compound isolated from pollen of Calendula officinalis; cited from earlier work
[4] = ABTS radical-scavenging assay; conditions: for ABTS Radical Scavenging (%): Table S4; for IC50: read-out: Radical Scavenging Activity Against ABTS IC50
Method: ABTS radical-scavenging activity was measured using a modified method of Re et al.. The ABTS stock solution was diluted in water to a concentration of 7.4 mM. The ABTS radical was produced by mixing ABTS stock solution with 2.45 mM potassium persulfate and incubating in dark for 12 h at room temperature. The ABTS solution was diluted with ethanol to obtain an absorbance (Ablank) of 0.70 ± 0.02 at 415 nm. After adding 95 μL of diluted ABTS solution to 5 μL of the sample, the mixture was incubated at room temperature for 15 min in dark. The absorbance (Asample) at 415 nm was measured using a microplate reader (Model Infinite M200 PRO; Tecan, Austria). The blank was prepared using the same procedure with deionized water instead of the sample. The ABTS radical scavenging activity was calculated as a percentage using the Equation (2) ABTS radical scavenging activity (%) = [1 − (Asample/Ablank)] × 100(2)

tyrosinase [5] = biological target: tyrosinase; design: method as in PMID 12720364, doi:10.1021/jf980226+; conditions: compound isolated from cumin; cited from earlier work
[6] = tested on: human melanocyte tyrosinase; design: method as in PMID 16442796; conditions: at 100 μM; cited from earlier work
[7] = tested on: microphthalmia-associated transcription factor, tyrosinase, and tyrosinase-related proteins; design: method as in PMID 30146944; conditions: compound isolated from stem extract of Aurea helianthus; cited from earlier work
tyrosinase [8] = experiment: Tyrosinase inhibition assay (L-DOPA oxidation); format: biochemical; conditions: at 100 μg/mL
Method: The tyrosinase inhibition assay was performed using a modification of the method reported by Nerya et al.. A portion of a sample (20 μL) in DMSO (100 μg/mL) was mixed with 50 μL of 0.1 M potassium phosphate buffer (pH 6.8), to which was added 30 μL of 33 unit/mL tyrosinase and 100 μL of 12 mM L-3,4-dihydroxyphenylalanine (L-DOPA). The solution was mixed gently and the initial absorbance (Ainitial) was recorded at 492 nm using a microplate reader. The reaction mixture was then incubated at 37 °C for 4 min and thereafter the final absorbance (Afinal) was measured at 492 nm. Kojic acid was used as the reference drug. The tyrosinase inhibition activity was calculated as a percentage using the Equation (3) Tyrosinase inhibition activity (%) = [1 − (Afinal/Ainitial)] × 100(3)

inhibition at 10 µg/mL ([1]; Table S5)	inhibition at 25 µg/mL ([1]; Table S5)	inhibition at 50 µg/mL ([1]; Table S5)	inhibition at 100 µg/mL ([1]; 100 μg/mL, Table S5)	Radical-Scavenging Activity Against DPPH IC50 [2]	IC50 [2]	Radical Scavenging Activity Against ABTS IC50 [4]	IC50 [4]	SMILES	DPPH Radical Scavenging (%) ([2]; 1 μg/mL)	DPPH Radical Scavenging (%) ([2]; 2 μg/mL)	DPPH Radical Scavenging (%) ([2]; 5 μg/mL)	DPPH Radical Scavenging (%) ([2]; 10 μg/mL)	DPPH Radical Scavenging (%) ([2]; 25 μg/mL)	DPPH Radical Scavenging (%) ([2]; 50 μg/mL)	DPPH Radical Scavenging (%) ([2]; 100 μg/mL)	DPPH Radical Scavenging (%) ([2]; 250 μg/mL)	DPPH Radical Scavenging (%) ([2]; 500 μg/mL)	ABTS Radical Scavenging (%) ([4]; 5 μg/mL)	ABTS Radical Scavenging (%) ([4]; 25 μg/mL)	ABTS Radical Scavenging (%) ([4]; 50 μg/mL)	other results
0.73 ± 0.01%	21.17 ± 0.01%	37.95 ± 0.02%	41.11 ± 0.01%	9.53 µg/mL	17.5 µM	16.37 µg/mL	30.1 µM	COc1cc(/C=C/C(=O)O[C@@H]2C[C@@](OC(=O)/C=C/c3ccc(O)c(OC)c3)(C(=O)O)C[C@@H](O)[C@@H]2O)ccc1O [Compound 1, 1,3-di-O-trans-feruloyl-(−)-quinic acid]	11.87 ± 0.82%	24.91 ± 0.78%	38.70 ± 2.24%	51.54 ± 1.30%	82.94 ± 0.56%	85.92 ± 1.27%	89.88 ± 1.25%	100.78 ± 1.46%	101.99 ± 0.37%	27.97 ± 4.11%	66.31 ± 1.84%	66.38 ± 1.47%	IC50 [1]: 242 µM; IC50, activity of tyrosinase against diphenolase (tyrosinase [3]): 134.4 ± 4.8 µg/mL; IC50, activity of tyrosinase against monophenolase (tyrosinase [3]): 44.6 ± 1.5 µg/mL
15.07 ± 0.01%	36.64 ± 0.02%	42.68 ± 0.01%	52.6%	–	–	–	–	O=Cc1ccc(O)cc1 [Compound 2, p-hydroxybenzaldehyde]	2.93 ± 2.39%	2.73 ± 2.15%	3.58 ± 1.79%	4.43 ± 0.36%	3.61 ± 1.11%	3.78 ± 1.40%	3.89 ±2.50%	7.28 ± 0.80%	8.66 ± 0.30%	2.03 ± 0.00%	3.97 ± 0.43%	8.71 ± 0.21%	IC50 [1]: 710 µM; IC50 (tyrosinase [5]): 820 µM; type of tyrosinase inhibition (tyrosinase [5]): non-competitive
14.76 ± 0.01%	15.87 ± 0.02%	16.96 ± 0.02%	17.28 ± 0.02%	4.67 µg/mL	14.9 µM	8.19 µg/mL	26.1 µM	COc1cc(/C=C/C(=O)NCCc2ccc(O)cc2)ccc1O [Compound 3, N-trans-feruloyltyramine]	0.86 ± 2.12%	14.90 ± 1.63%	54.29 ±0.30%	63.25 ± 0.83%	70.53 ± 1.74%	78.51 ± 0.06%	93.65 ± 1.70%	95.51 ± 0.10%	97.23 ± 0.33%	44.18 ± 2.64%	78.71 ± 0.06%	82.19 ± 1.38%	inhibition of human melanocyte tyrosinase [6]: 49 ± 4%; effect on microphthalmia-associated transcription factor, tyrosinase, and tyrosinase-related proteins [7]: downregulate
–	–	–	–	–	–	–	–	O=c1cc(CO)occ1O [Kojic acid]	–	–	–	–	–	–	–	–	–	–	–	–	Inhibition of L-DOPA Oxidation (%) (tyrosinase [8]): 98.6 ± 0.4 ^2%
–	–	–	–	1.17 µg/mL	6.64 µM	3.50 µg/mL	19.9 µM	O=C1O[C@H]([C@@H](O)CO)C(O)=C1O [L-Ascorbic acid, reference compound]	45.09 ± 1.40%	87.36 ± 2.24%	97.41 ± 0.46%	98.01 ± 0.07%	97.50 ± 0.53%	97.28 ± 0.27%	97.03 ± 0.26%	98.14 ± 0.15%	–	70.41 ±0.28%	99.75 ± 0.06%	99.77 ± 0.08%	Radical-Scavenging Activity Against DPPH (%) ([2]; at 100 μg/mL): 98.5 ± 0.2 ^1%; Radical-Scavenging Activity Against ABTS (%) ([4]; at 100 μg/mL): 99.5 ± 0.3 ^1%
–	–	–	–	–	–	–	–	CCCCCCCCCCC[C@@H](C[C@@H]1OC(=O)[C@H]1CCCCCC)OC(=O)[C@H](CC(C)C)NC=O [Orlistat, orlistat, reference compound]	–	–	–	–	–	–	–	–	–	–	–	–	inhibition at 0.1 µg/mL ([1]; 0.10 μg/mL, Table S5): 22.98 ± 0.01%; inhibition at 0.25 µg/mL ([1]; 0.25 μg/mL, Table S5): 27.63 ± 0.01%; inhibition at 0.5 µg/mL ([1]; 0.50 μg/mL, Table S5): 51.17 ± 0.01%; inhibition at 1 µg/mL ([1]; 1.00 μg/mL, Table S5): 54.53 ± 0.02%; inhibition at 100 µg/mL ([1]; at 100 μg/mL): 67.8%
